Experimental data published in ChEMBL document CHEMBL1777781, “Synthesis and antidyslipidemic activity of chalcone fibrates” (2011).

Columns and labels:
Syrian golden hamster [1] = test: Antidyslipidemic activity against high fructose high fat diet fed syrian golden hamster assessed as change in serum HDL-cholesterol at 30 mg/kg, po for 7 days relative to untreated control; assay type: functional, Mesocricetus auratus
Syrian golden hamster [2] = test: Antidiabetic activity against high fructose high fat diet fed syrian golden hamster assessed as change in fasting blood glucose level at 30 mg/kg, po for 7 days relative to untreated control; assay type: functional, Mesocricetus auratus
Syrian golden hamster [3] = test: Antidyslipidemic activity against high fructose high fat diet fed syrian golden hamster assessed as reduction in serum cholesterol at 30 mg/kg, po for 7 days relative to untreated control; assay type: functional, Mesocricetus auratus; parameters: scale not given: the % may be the effect or the level left
Syrian golden hamster [4] = test: Antidyslipidemic activity against high fructose high fat diet fed syrian golden hamster assessed as reduction in serum LDL-cholesterol at 30 mg/kg, po for 7 days relative to untreated control; assay type: functional, Mesocricetus auratus; parameters: scale not given: the % may be the effect or the level left
Syrian golden hamster [5] = test: Antidiabetic activity against high fructose high fat diet fed syrian golden hamster assessed as change in serum insulin level at 30 mg/kg, po for 7 days by ELISA relative to untreated control; assay type: functional, Mesocricetus auratus
Syrian golden hamster [6] = test: Antidyslipidemic activity against high fructose high fat diet fed syrian golden hamster assessed as reduction in serum triglyceride at 30 mg/kg, po for 7 days relative to untreated control; assay type: functional, Mesocricetus auratus; parameters: scale not given: the % may be the effect or the level left
Syrian golden hamster [7] = test: Antidyslipidemic activity against high fructose high fat diet fed syrian golden hamster assessed as reduction in serum LDL-cholesterol at 10 mg/kg, po for 7 days relative to untreated control; assay type: functional, Mesocricetus auratus; parameters: scale not given: the % may be the effect or the level left
Syrian golden hamster [8] = test: Antidyslipidemic activity against high fructose high fat diet fed po dosed syrian golden hamster assessed as reduction in serum cholesterol administered for 7 days relative to untreated control; assay type: functional, organism-based; settings: Mesocricetus auratus
Syrian golden hamster [9] = test: Antidyslipidemic activity against high fructose high fat diet fed po dosed syrian golden hamster assessed as reduction in serum LDL-cholesterol administered for 7 days relative to untreated control; assay type: functional, organism-based; settings: Mesocricetus auratus
Syrian golden hamster [10] = test: Antidyslipidemic activity against high fructose high fat diet fed syrian golden hamster assessed as reduction in serum cholesterol at 10 mg/kg, po for 7 days relative to untreated control; assay type: functional, Mesocricetus auratus; parameters: scale not given: the % may be the effect or the level left
Syrian golden hamster [11] = test: Antidyslipidemic activity against high fructose high fat diet fed po dosed syrian golden hamster assessed as increase in lipoprotein lipase activity administered for 7 days relative to untreated control; assay type: functional, organism-based; settings: Mesocricetus auratus
Syrian golden hamster [12] = test: Antidyslipidemic activity against high fructose high fat diet fed syrian golden hamster assessed as reduction in NEFA level at 30 mg/kg, po for 7 days relative to untreated control; assay type: functional, Mesocricetus auratus; parameters: scale not given: the % may be the effect or the level left
Syrian golden hamster [13] = test: Antidyslipidemic activity against high fructose high fat diet fed po dosed syrian golden hamster assessed as reduction in NEFA level administered for 7 days relative to untreated control; assay type: functional, organism-based; settings: Mesocricetus auratus
Syrian golden hamster [14] = test: Antidyslipidemic activity against high fructose high fat diet fed po dosed syrian golden hamster assessed as increase in serum HDL-cholesterol administered for 7 days relative to untreated control; assay type: functional, organism-based; settings: Mesocricetus auratus
Syrian golden hamster [15] = test: Antidyslipidemic activity against high fructose high fat diet fed po dosed syrian golden hamster assessed as reduction in serum triglyceride administered for 7 days relative to untreated control; assay type: functional, organism-based; settings: Mesocricetus auratus
Syrian golden hamster [16] = test: Antidyslipidemic activity against high fructose high fat diet fed po dosed syrian golden hamster assessed as reduction in glycerol level administered for 7 days relative to untreated control; assay type: functional, organism-based; settings: Mesocricetus auratus
Syrian golden hamster [17] = test: Antidyslipidemic activity against high fructose high fat diet fed syrian golden hamster assessed as reduction in glycerol level at 10 mg/kg, po for 7 days relative to untreated control; assay type: functional, Mesocricetus auratus; parameters: scale not given: the % may be the effect or the level left
Syrian golden hamster [18] = test: Antidyslipidemic activity against high fructose high fat diet fed syrian golden hamster assessed as reduction in glycerol level at 30 mg/kg, po for 7 days relative to untreated control; assay type: functional, Mesocricetus auratus; parameters: scale not given: the % may be the effect or the level left
Syrian golden hamster [19] = test: Antidyslipidemic activity against high fructose high fat diet fed syrian golden hamster assessed as reduction in serum triglyceride at 10 mg/kg, po for 7 days relative to untreated control; assay type: functional, Mesocricetus auratus; parameters: scale not given: the % may be the effect or the level left
Syrian golden hamster [20] = test: Antidyslipidemic activity against high fructose high fat diet fed syrian golden hamster assessed as change in serum HDL-cholesterol at 10 mg/kg, po for 7 days relative to untreated control; assay type: functional, Mesocricetus auratus
Syrian golden hamster [21] = test: Antidyslipidemic activity against high fructose high fat diet fed syrian golden hamster assessed as reduction in NEFA level at 10 mg/kg, po for 7 days relative to untreated control; assay type: functional, Mesocricetus auratus; parameters: scale not given: the % may be the effect or the level left
Syrian golden hamster [22] = test: Antidyslipidemic activity against high fructose high fat diet fed syrian golden hamster assessed as increase in lipoprotein lipase activity at 10 mg/kg, po for 7 days relative to untreated control; assay type: functional, Mesocricetus auratus
Syrian golden hamster [23] = test: Antidyslipidemic activity against high fructose high fat diet fed syrian golden hamster assessed as reduction in body weight at 30 mg/kg, po for 7 days relative to untreated control; assay type: functional, Mesocricetus auratus; parameters: scale not given: the % may be the effect or the level left
Syrian golden hamster [24] = test: Antidyslipidemic activity against high fructose high fat diet fed syrian golden hamster assessed as increase in lipoprotein lipase activity at 30 mg/kg, po for 7 days relative to untreated control; assay type: functional, Mesocricetus auratus

SMILES | Activity (Syrian golden hamster [1]) | Activity (Syrian golden hamster [2]) | Activity (Syrian golden hamster [3]) | Activity (Syrian golden hamster [4]) | Activity (Syrian golden hamster [5]) | Activity (Syrian golden hamster [6]) | other results
CCOC(=O)C(C)(C)Oc1cccc(/C=C/C(=O)c2ccccc2)c1 | 2.1% | -10.5% | 11.5% | 15.3% | -5.89% | 18.5% | 
CCOC(=O)C(C)(C)Oc1ccc(C(=O)/C=C/c2ccc(C)cc2)cc1 | 2.52% | -12.9% | 23.4% | 19.8% | -10.8% | 22.7% | 
CCOC(=O)C(C)(C)Oc1ccc(C(=O)/C=C/c2cc(Cl)cc(Cl)c2)cc1 | 10.1% | -8.4% | 16.9% | 16.8% | -12.1% | 17.4% | 
CCOC(=O)C(C)(C)Oc1ccc(/C=C/C(=O)c2ccccc2)cc1 | 10.8% | 8.8% | 17.8% | 16.8% | 6.78% | 25.1% | 
CCOC(=O)C(C)(C)Oc1ccc(C(=O)/C=C/c2ccccc2Cl)cc1 | 15.6% | 4.65% | 0.48% | 16.4% | 2.39% | 21.3% | 
CCOC(=O)C(C)(C)Oc1ccc(C(=O)/C=C/c2ccc([N+](=O)[O-])cc2)cc1 | 5.88% | -7.49% | 25% | 28.5% | -24.3% | 30.4% | Activity (Syrian golden hamster [7]): 16.9%; Activity (Syrian golden hamster [8]): Dose-dependent effect; Activity (Syrian golden hamster [9]): Dose-dependent effect; Activity (Syrian golden hamster [10]): 15.6%; Activity (Syrian golden hamster [11]): Dose-dependent effect; Activity (Syrian golden hamster [12]): 15.9%; Activity (Syrian golden hamster [13]): Dose-dependent effect; Activity (Syrian golden hamster [14]): Dose-dependent effect; Activity (Syrian golden hamster [15]): Dose-dependent effect; Activity (Syrian golden hamster [16]): Dose-dependent effect; Activity (Syrian golden hamster [17]): 7.93%; Activity (Syrian golden hamster [18]): 17.2%; Activity (Syrian golden hamster [19]): 20%; Activity (Syrian golden hamster [20]): -3.36%; Activity (Syrian golden hamster [21]): 2.45%; Activity (Syrian golden hamster [22]): 10.8%; Activity (Syrian golden hamster [23]): 6.85%; Activity (Syrian golden hamster [24]): 21.7%
CCOC(=O)C(C)(C)Oc1ccc(C(=O)/C=C/c2ccc(Cl)cc2)cc1 | -2.52% | 5.4% | 23.7% | 20.5% | -22.2% | 22.7% | 
CCOC(=O)C(C)(C)Oc1ccc(C(=O)/C=C/c2ccc(F)cc2)cc1 | 4.8% | -18.4% | 16.8% | 23.2% | -4.9% | 22.2% | 
CCOC(=O)C(C)(C)Oc1ccc(C(=O)/C=C/c2ccc3c(c2)OCO3)cc1 | 9.8% | -14.8% | 26.8% | 41.7% | -22.2% | 41.6% | Activity (Syrian golden hamster [7]): 25.2%; Activity (Syrian golden hamster [8]): Dose-dependent effect; Activity (Syrian golden hamster [9]): Dose-dependent effect; Activity (Syrian golden hamster [10]): 18.6%; Activity (Syrian golden hamster [11]): Dose-dependent effect; Activity (Syrian golden hamster [12]): 20.5%; Activity (Syrian golden hamster [13]): Dose-dependent effect; Activity (Syrian golden hamster [14]): Dose-dependent effect; Activity (Syrian golden hamster [15]): Dose-dependent effect; Activity (Syrian golden hamster [16]): Dose-dependent effect; Activity (Syrian golden hamster [17]): 14.9%; Activity (Syrian golden hamster [18]): 24.9%; Activity (Syrian golden hamster [19]): 20%; Activity (Syrian golden hamster [20]): 3.78%; Activity (Syrian golden hamster [21]): 6.73%; Activity (Syrian golden hamster [22]): 14.5%; Activity (Syrian golden hamster [23]): 6.25%; Activity (Syrian golden hamster [24]): 30.2%
CC(C)OC(=O)C(C)(C)Oc1ccc(C(=O)c2ccc(Cl)cc2)cc1 [FENOFIBRATE] | 9.8% | -5.4% |  | 30.1% | -11.5% | 28.9% | Activity (Syrian golden hamster [18]): 22.4%; Activity (Syrian golden hamster [24]): 21.1%
CCOC(=O)C(C)(C)Oc1ccc(C(=O)/C=C/c2ccc(OC)cc2)cc1 | -9.9% | -16.9% | 9.3% | 27.4% | -5.87% | 31.2% | 
